This is an account of results in US11535630B2, “Apelin receptor (APJ) agonists and uses thereof” (Research Triangle Institute, priority 2015, dated 2022).

As a reminder, the EC50 is the midpoint of the concentration-response curve. The efflux ratio is a quotient of directional permeabilities that is used to spot active efflux.

Where two headings read alike, the source gives them in different places.

One data set addresses T1, apelin receptor (APJ) (Homo sapiens, UniProt P35414).
T1 sequence (P35414 1-380): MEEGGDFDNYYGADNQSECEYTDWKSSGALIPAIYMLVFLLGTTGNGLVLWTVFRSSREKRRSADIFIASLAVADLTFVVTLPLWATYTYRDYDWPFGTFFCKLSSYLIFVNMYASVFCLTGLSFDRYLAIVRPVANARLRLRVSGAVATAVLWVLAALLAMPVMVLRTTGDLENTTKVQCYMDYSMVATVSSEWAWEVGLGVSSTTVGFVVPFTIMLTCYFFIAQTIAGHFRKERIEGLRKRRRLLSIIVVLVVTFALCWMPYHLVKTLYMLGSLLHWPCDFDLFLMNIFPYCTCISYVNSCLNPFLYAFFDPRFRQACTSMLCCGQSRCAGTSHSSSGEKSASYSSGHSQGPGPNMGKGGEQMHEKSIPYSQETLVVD
Kind of data set: In vitro apelin agonist activity (methods of Giddings et al., Apelin-13 as positive control). Format: cell-based. From the text:
Characterization of the Apelin Agonist Activity of the Compounds
1:39-47, the contents of which are hereby incorporated by reference in its entirety. Using the methods described in Giddings et al. and Apelin-13 as a positive control.

Data set [1] is described as follows: Caco-2 cellular uptake / permeability assay (A-to-B, B-to-A). The class given is in vitro ADME. To be noted: human, Caco-2, pH 7.4. On the procedure: 5.3. Cellular Uptake Assay
Caco-2 cells (clone C2BBe1) were obtained from American Type Culture Collection (Manassas, Va,). Cell monolayers were grown to confluence on collagen-coated, microporous, polycarbonate membranes in 12-well Costar Transwell plates. Details of the plates and their certification are shown below. The permeability assay buffer was Hanks' balanced salt solution (HBSS) containing 10 mM HEPES and 15 mM glucose at a pH of 7.4. The buffer in the receiver chamber also contained 1% bovine serum albumin. The dosing solution concentration was 5 μM for each test article in the assay buffer. Cell monolayers were dosed on the apical side (A-to-B) or basolateral side (B-to-A) and incubated at 37° C. with 5% CO2 in a humidified incubator. Samples were taken from the donor and receiver chambers at 120 minutes. Each determination was performed in duplicate. After the experiment, all assay buffers were removed from the inserts. Cell monolayers were dosed with blank 500 μM lucifer yellow on the A-to-B side and blank HBSS on the B-to-A side and incubated at 37° C. Samples were taken from the B-to-A side at 60 minutes. The flux of lucifer yellow was measured for each monolayer to ensure no damage was inflicted to the cell monolayers during the flux period. All samples were analyzed by LC-MS/MS using electrospray ionization.
Where, dCr/dt is the slope of the cumulative concentration in the receiver compartment versus time in μM s^−1;
Vr is the volume of the receiver compartment in cm^3;
Vd is the volume of the donor compartment in cm^3;
CA is the average of the nominal dosing concentration and the measured 120-minute donor concentration in μM;
CN is the nominal concentration of the dosing solution in μM;
Cr^final is the cumulative receiver concentration in μM at the end of the incubation period;
Cd^final is the concentration of the donor in μM at the end of the incubation period.
Efflux ratio (ER) is defined as Papp (B-to-A)/Papp (A-to-B).
On the technique in general: Passage across Caco-2 layers is used to estimate intestinal permeability.

Another data set concerns male Sprague-Dawley rats. Kind of data set: In vivo blood pressure lowering in conscious telemetered rats, oral gavage. More on the design: species or system rat. The conditions noted are these: for Diastolic blood pressure, 2-5 h mean change from baseline / MAP, 2-5 h mean change from baseline / Systolic blood pressure, 2-5 h mean change from baseline: rat. On the procedure: In Vivo Blood Pressure Lowering Activity of the Compounds
Select compounds were evaluated for their effects upon oral administration on hemodynamic changes, including blood pressure reduction, in conscious, telemetered male Sprague-Dawley rats. Apelin peptides are known to lower blood pressure, e.g., Tatemoto, K., et.al. Regul. Pept. 2001, 99, 87-92.
Animals were approximately 7-9 weeks of age and weighed between 247 g to 263 g just prior to surgery. Dose levels administered were 7.5, 15 or 30 mg/kg, dose volumes were 10 mL/kg, and dose route of administration was oral gavage. Animals were assigned to a crossover experimental treatment schedule as shown below.
Collected data included systolic, diastolic, and mean arterial blood pressure (MAP). Data collection time points were for pre-dose baseline approximately 48 h (prior to treatment 1) or approximately 24 h (prior to treatment 2-4) for 10 sec every 2 min. Data collection post-dose was collected through approximately 24 h (data collected for 10 sec every 2 min) per treatment. Resulting data is presented below as the 2-5 h mean change from baseline in mmHg.

Setting [2] is: apelin agonist potency as listed in Table 3 (Cellular Uptake Results), read-out: EC50.
[3] abbreviates: in vitro apelin agonist activity, methods of Giddings et al., Apelin-13 as positive control, read-out: EC50 (nM) Ave.

Take `COc1cccc(OC)c1-c1cc(C(=O)N[C@@H](CCN2CCC(F)(F)CC2)CC(=O)NC2CCC2)nn1C1CCCC1` [compound 335, (3S)-N-cyclobutyl-3-{[1-cyclopentyl-5-(2,6-dimethoxyphenyl)-1H-pyrazol-3-yl]formamido}-5-(4,4-difluoropiperidin-1-yl)pentanamide]: the EC50 at apelin receptor (APJ) (setting [2]) and on apelin receptor (APJ) (setting [3]) was 63 nM each time. Moreover, the efflux ratio at 120 min, 5 μM in data set [1] came to 1.
Consider `COc1cccc(OC)c1-c1cc(C(=O)N[C@@H](CCN2CCCC(F)(F)C2)CC(=O)NC2CCC2)nn1C1CCCC1` [compound 348, (3S)-N-cyclobutyl-3-{[1-cyclopentyl-5-(2,6-dimethoxyphenyl)-1H-pyrazol-3-yl]formamido}-5-(3,3-difluoropiperidin-1-yl)pentanamide], for which the EC50 at apelin receptor (APJ) (setting [2]) and at apelin receptor (APJ) (setting [3]) was 15 nM throughout. Further, the efflux ratio at 120 min, 5 μM in data set [1] worked out at 2.1.
With `CCc1ccccc1-c1cc(C(=O)N[C@@H](CCN2CCCCC2)CC(=O)NC2CCC2)nn1C1CCCC1` [compound 363, (3S)-N-cyclobutyl-3-{[1-cyclopentyl-5-(2-ethylphenyl)-1H-pyrazol-3-yl]formamido}-5-(piperidin-1-yl)pentanamide], the EC50 at apelin receptor (APJ) (setting [2]) and at apelin receptor (APJ) (setting [3]) was 44 nM each time. Also, the efflux ratio at 120 min, 5 μM in data set [1] is 3.6.
Take `COc1cccc(OC)c1-c1cc(C(=O)N[C@@H](CCN2CCCC(F)(F)C2)CC(=O)Nc2nccs2)nn1C1CCCC1` [compound 384, (3S)-3-{[1-cyclopentyl-5-(2,6-dimethoxyphenyl)-1H-pyrazol-3-yl]formamido}-5-(3,3-difluoropiperidin-1-yl)-N-(1,3-thiazol-2-yl)pentanamide]: the EC50 at apelin receptor (APJ) (setting [2]) and at apelin receptor (APJ) (setting [3]) was 15 nM throughout. The efflux ratio at 120 min, 5 μM in data set [1] was 1.7.
As to `CCc1ccccc1-c1cc(C(=O)N[C@@H](CCN2CCCC(F)(F)C2)CC(=O)Nc2nccs2)nn1C1CCCC1` [compound 410, (3S)-3-{[1-cyclopentyl-5-(2-ethylphenyl)-1H-pyrazol-3-yl]formamido}-5-(3,3-difluoropiperidin-1-yl)-N-(1,3-thiazol-2-yl)pentanamide], the EC50 on apelin receptor (APJ) (setting [2]) and at apelin receptor (APJ) (setting [3]) was 7 nM each time. Also, in data set [1], the efflux ratio at 120 min, 5 μM worked out at 1.
As for `O=C(N[C@@H](CCN1CCCC(F)(F)C1)Cc1nnn[nH]1)c1cc(-c2ccccc2C(F)(F)F)n(C2CCCC2)n1` [compound 551, 1-cyclopentyl-N-[(2S)-4-(3,3-difluoropiperidin-1-yl)-1-(1H-1,2,3,4-tetrazol-5-yl)butan-2-yl]-5{2-(trifluoromethyl)phenyl]-1H-pyrazole-3-carboxamide], the EC50 at apelin receptor (APJ) (setting [3]) was determined as 25 nM. Further, in the data set on male Sprague-Dawley rats (7.5 mg/kg oral gavage), the “Diastolic blood pressure, 2-5 h mean change from baseline” value was −4.3 mmHg; the “MAP, 2-5 h mean change from baseline” value is −4.5 mmHg; the “Systolic blood pressure, 2-5 h mean change from baseline” value is recorded as −6.6 mmHg. Further, in the data set on male Sprague-Dawley rats (15 mg/kg oral gavage), the “Diastolic blood pressure, 2-5 h mean change from baseline” value is −7.3 mmHg; the “MAP, 2-5 h mean change from baseline” value is reported as −8.5 mmHg; the “Systolic blood pressure, 2-5 h mean change from baseline” value is on record as −9.6 mmHg. Besides, in the data set with male Sprague-Dawley rats (30 mg/kg oral gavage), the “Diastolic blood pressure, 2-5 h mean change from baseline” value is −8.4 mmHg; the “MAP, 2-5 h mean change from baseline” value is listed as −9.8 mmHg; the “Systolic blood pressure, 2-5 h mean change from baseline” value is −11.3 mmHg. Moreover, in the data set with male Sprague-Dawley rats (oral gavage 7.5, 15 or 30 mg/kg, male Sprague-Dawley rats), the “Effect on blood pressure (in words)” value is listed as “dose-dependent, mild sustained decrease in blood pressure”.
